Assay results published in publication PMC11513892, “Discovery of a Series of Macrocycles as Potent Inhibitors of Leishmania Infantum” (Journal of Medicinal Chemistry, 2024).
Like-named read-outs stand apart in the source and are kept apart here.

Columns and labels:
T. b. brucei = assay: Growth of T. b. brucei trypomastigotes in axenic culture; format: cell-based; settings: Trypanosoma brucei
Excerpt: (§1) We previously reported the synthesis of a series of macrocycles, including 1 (Figure 2A), designed to investigate how structural features influence molecular chameleonicity.[15],[21] Originating from the structural similarities between 1 and hymenocardine, we investigated 1 in screens for P. falciparum and four kinetoplastid parasites: T. b. brucei, T. b. rhodesiense, T. cruzi, and L. infantum. In the screens, we also included compounds 2 and 3 (Figure 2A), which were obtained from an intermediate late in the synthetic route to 1. Since very few validated protein targets relevant to clearance of parasites are known, phenotypic assays were used to investigate the antiparasitic activity for all five parasites. For malaria, the P. falciparum blood stage 3D7 strain was used to test the three compounds. For the two Trypanosoma brucei species, the reduction in trypomastigote growth in culture medium was determined after the addition of 1–3. For T. cruzi, the intracellular parasite growth in infected human fibroblasts (MRC-5 cell line) was assessed in the presence and absence of the three inhibitors. Similarly, the growth of L. infantum was assessed in infected primary mouse macrophages (PMMs) in the presence and absence of the inhibitors. […] The assays for T. cruzi and L. infantum are complex, i.e., they determine the degree of inhibition of parasitic replication in a mammalian cell line; this complexity may lead to a high variability for some compounds.
(§2) The growth of the P. falciparum blood stage 3D7 strain,[53] the two T. brucei species in axenic cultures,[54]T. cruzi in infected human fibroblasts (MRC-5 cell line),[55] and of L. infantum in infected primary mouse macrophages (PMMs)[56] was determined as previously reported in the presence and absence of inhibitors 1–12.

MRC-5 cells = assay: Host cell cytotoxicity in MRC-5 cells; format: cell-based, human; settings: CSV supplement; decimal comma
T. b. rhodesiense = assay: Growth of T. b. rhodesiense trypomastigotes in axenic culture; format: cell-based, Trypanosoma brucei rhodesiense; settings: Trypanosoma brucei
Excerpt: as §1, §2

T. cruzi = assay: Intracellular growth of T. cruzi in infected human fibroblasts (MRC-5 cell line); format: cell-based; settings: Trypanosoma cruzi
Excerpt: as §1, §2

[1] = Clearance in mouse liver microsomes; format: in vitro ADME; settings: for microsomal CLint: mouse, liver microsomes
Procedure: (§3) The kinetic solubility in phosphate buffered saline at pH 7.4, chromatographic Log D at pH 7.4, cell permeability across a MDCK-MDR1 cell monolayer at pH 7.4, and the clearance in mouse liver microsomes of 1–12 was determined at TCG Lifesciences.

L. infantum = assay: Growth of L. infantum in infected primary mouse macrophages (PMMs), phenotypic assay; format: cell-based, Leishmania infantum; settings: for EC50: Leishmania infantum, Macrophage; for loss in potency compared to 3, L. infantum: relative to compound 3
Excerpt: as §1
(§4) The potency of macrocycles 1–12 to inhibit the growth of L. infantum was determined in a phenotypic assay in which the parasite was grown in primary peritoneal mouse macrophages (PMMs). To understand whether the SAR for inhibition of parasitic growth is impacted by low cell permeability, the permeability of compounds 1–12 was determined separately. Madin-Darby canine kidney (MDCK) cells transfected with the human MDR1 (multidrug resistance 1) gene (MDCK-MDR1 cells) were used to determine permeabilities in the apical to basolateral direction (Papp AB) as well as efflux ratios (ERs). […] Lipophilicity (Log D at pH 7.4), aqueous kinetic solubility and mouse liver microsomal metabolism were also determined for 1–12, and are discussed separately (cf. physiochemical properties and ADMET, below).
as §2

[2] = system: primary mouse macrophages (PMMs); assay: Host cell cytotoxicity in primary mouse macrophages (PMM); format: cell-based; settings: CSV supplement; decimal comma
[3] = Kinetic solubility in phosphate buffered saline at pH 7.4; format: physicochemical
Procedure: as §3

MDR1 = assay: in vitro; format: in vitro ADME, canine; settings: dog; for Papp B→A: MDCK-MDR1, pH 7.4; for Papp A→B: MDCK-MDR1, pH 7.4, Papp AB
Procedure: as §4, §3

[4] = Chromatographic Log D at pH 7.4; format: physicochemical; settings: 1-octanol/PBS pH 7.4, determined by chromatography, mean of two measurements
Procedure: as §3

[5] = CSV supplement, decimal comma, read-out: EC50 T.b. brucei Squib 427
[6] = RHODESIENSE / STIB900, CSV supplement, decimal comma, read-out: EC50 T.b. rhodesiense STIB 900
[7] = MRC5, Table S1, mean (SD), 2 to 14 measurements, unit not given in Table S1, read-out: In vitro potency, T. cruzi
[8] = TULAHUEN, MRC5, read-out: EC50 T. cruzi Tulahuen C4 (LacZ)
[9] = CSV supplement, read-out: CLint in vitro Mouse Microsomes
[10] = incubation with mouse liver microsomes, read-out: CLint
[11] = CSV supplement, decimal comma, read-out: EC50 L. infantum MHOM/MA(BE)/67
[12] = Table 1, mean (standard deviation, number of measurements), read-out: EC50 (μM), inhibition of the growth of L. infantum
[13] = phosphate buffered saline, pH 7.4, CSV supplement, read-out: Kinetic solubility
[14] = phosphate buffered saline, pH 7.4, phosphate buffered saline pH 7.4, assay range 2.5–200 μM, read-out: solubility (kinetic)
[15] = MDCK-MDR1, pH 7.4, ER, efflux ratio (BA/AB)
[16] = MDCK-MDR1, pH 7.4, MDCK MDR1 - pH 7.4 Efflux Ratio
[17] = Table S1, mean (SD), 2 to 14 measurements, unit not given in Table S1, read-out: In vitro potency, T. b. brucei
[18] = RHODESIENSE, Table S1, mean (SD), 2 to 14 measurements, unit not given in Table S1, read-out: In vitro potency, T. b. rhodesiense

| SMILES | EC50 (T. b. brucei; [5]) | MRC-5 cells Human Lung Fibroblast Cells (cytotoxicity) (MRC-5 cells) | EC50 (T. b. rhodesiense; [6]) | EC50 (T. cruzi; [7]) | EC50 (T. cruzi; [8]) | t(1/2), Mouse Microsomes ([1]; CSV supplement) | microsomal CLint [1, 9] | microsomal CLint [1, 10] | EC50 (L. infantum; [11]) | EC50 (L. infantum; [12]) | loss in potency compared to 3, L. infantum (L. infantum) | PMM Primary Mouse Macrophages (inf-LMPH) (cytotoxicity) [2] | solubility kinetic [3, 13] | solubility kinetic [3, 14] | Papp B→A (MDR1) | efflux ratio (MDR1; [15]) | efflux ratio (MDR1; [16]) | Papp A→B (MDR1) | chromatographic logD [4] | EC50 (T. b. brucei; [17]) | other results |
| --- | --- | --- | --- | --- | --- | --- | --- | --- | --- | --- | --- | --- | --- | --- | --- | --- | --- | --- | --- | --- | --- |
| C[C@@H]1NC(=O)[C@@H](NC(=O)OC(C)(C)C)Cc2ccc(cc2)Oc2ccc(cc2NC(=O)c2ccccn2)C(=O)CNC1=O [Compound 7, tert-Butyl ((8S,11S)-8-Methyl-4,7,10-trioxo-3^2-(picolinamido)-2-oxa-6,9-diaza-1,3(1,4)-dibenzenacyclododecaphane-11-yl)carbamate] | 49 µM | >64 µM | 9.7 µM | 36 µM | 35.5 µM | 5,8 min | 297 µL/min/mg | 300 µL/min/mg | 15.5 µM | 16 µM | ~10 fold | >64 µM | 73.7 µg/mL | > 100 µM | 39.3 ×10⁻⁶ cm/s | 28 | 28.3 | 1.4 ×10⁻⁶ cm/s | 3.5 | – | solubility kinetic ([3]; phosphate buffered saline pH 7.4, assay range 2.5–200 μM, read-out: solubility (kinetic)): 126 µM |
| CC(C)(C)OC(=O)N[C@H]1Cc2ccc(cc2)Oc2ccc(cc2NC(=O)c2ccccn2)C(=O)CNC(=O)[C@@H](Cc2ccccc2)NC1=O [Compound 8, tert-Butyl ((8R,11S)-8-Benzyl-4,7,10-trioxo-3^2-(picolinamido)-2-oxa-6,9-diaza-1,3(1,4)-dibenzenacyclododecaphane-11-yl)carbamate] | 8.1 µM | >64 µM | 6.4 µM | – | 6.1 µM | <3 min | > 578 µL/min/mg | > 580 µL/min/mg | – | 8.2 µM | – | >64 µM | 1.9 µg/mL | 2.9 µM | 22.3 ×10⁻⁶ cm/s | 7.6 | 7.6 | 2.9 ×10⁻⁶ cm/s | 4.8 | – | – |
| CC(=O)N[C@H]1Cc2ccc(cc2)Oc2ccc(cc2NC(=O)c2ccccn2)C(=O)CNC(=O)[C@H](Cc2ccccc2)NC1=O [Compound 11] | 26.8 µM | >64 µM | 23.6 µM | – | 33 µM | 12,9 min | 134 µL/min/mg | 130 µL/min/mg | 37.5 µM | 38 µM | > 20 fold | >64 µM | 58.3 µg/mL | 96 µM | 17.8 ×10⁻⁶ cm/s | – | – | 1.1 ×10⁻⁶ cm/s | 3.2 | 36 µM | EC50 (T. b. rhodesiense; [18]): 24 µM; efflux ratio (MDR1; MDCK-MDR1, pH 7.4, CSV supplement, pH 7.4, read-out: MDCK MDR1 - pH 7.4 Efflux Ratio): 15.7; efflux ratio (MDR1; MDCK-MDR1, pH 7.4, MDCK-MDR1 cell monolayer, read-out: ER, efflux ratio (BA/AB)): 16 |
| CC(C)(C)C(=O)N[C@H]1Cc2ccc(cc2)Oc2ccc(cc2NC(=O)c2ccccn2)C(=O)CNC(=O)[C@H](Cc2ccccc2)NC1=O [Compound 12, tert-Butyl ((8S,11S)-8-Benzyl-4,7,10-trioxo-11-pivalamido-2-oxa-6,9-diaza-1,3(1,4)-dibenzenacyclododecaphane-3^2-yl)picolinamide] | 30.4 µM | >64 µM | 21.3 µM | 64 µM | > 64 µM | <3 min | > 578 µL/min/mg | > 580 µL/min/mg | – | 7.1 µM | – | >64 µM | 10.3 µg/mL | 16 µM | 31.8 ×10⁻⁶ cm/s | 21 | 20.8 | 1.5 ×10⁻⁶ cm/s | 4.4 | 30 µM | EC50 (T. b. rhodesiense; [18]): 21 µM |
| CCCCCCCCCCCCCCCCOP(=O)([O-])OCC[N+](C)(C)C [Miltefosine, miltefosine, reference compound] | – | – | – | – | – | – | – | – | – | 6.1 µM | – | – | – | – | – | – | – | – | – | – | – |
